Calls of active or inactive are those of the source. Cut-off read from the data, not from the text of the source: actives have a measured IC50 and inactives only a lower limit.
target: Envelope glycoprotein gp160 (Human immunodeficiency virus 1, UniProt Q6QLK5); assay: inhibitors of HIV fusion peptide binding, primary screen, biochemical, uHTS, fluorescence dequenching (AID 1986)
Sequence (Q6QLK5 whole entry, the tested form may be a part): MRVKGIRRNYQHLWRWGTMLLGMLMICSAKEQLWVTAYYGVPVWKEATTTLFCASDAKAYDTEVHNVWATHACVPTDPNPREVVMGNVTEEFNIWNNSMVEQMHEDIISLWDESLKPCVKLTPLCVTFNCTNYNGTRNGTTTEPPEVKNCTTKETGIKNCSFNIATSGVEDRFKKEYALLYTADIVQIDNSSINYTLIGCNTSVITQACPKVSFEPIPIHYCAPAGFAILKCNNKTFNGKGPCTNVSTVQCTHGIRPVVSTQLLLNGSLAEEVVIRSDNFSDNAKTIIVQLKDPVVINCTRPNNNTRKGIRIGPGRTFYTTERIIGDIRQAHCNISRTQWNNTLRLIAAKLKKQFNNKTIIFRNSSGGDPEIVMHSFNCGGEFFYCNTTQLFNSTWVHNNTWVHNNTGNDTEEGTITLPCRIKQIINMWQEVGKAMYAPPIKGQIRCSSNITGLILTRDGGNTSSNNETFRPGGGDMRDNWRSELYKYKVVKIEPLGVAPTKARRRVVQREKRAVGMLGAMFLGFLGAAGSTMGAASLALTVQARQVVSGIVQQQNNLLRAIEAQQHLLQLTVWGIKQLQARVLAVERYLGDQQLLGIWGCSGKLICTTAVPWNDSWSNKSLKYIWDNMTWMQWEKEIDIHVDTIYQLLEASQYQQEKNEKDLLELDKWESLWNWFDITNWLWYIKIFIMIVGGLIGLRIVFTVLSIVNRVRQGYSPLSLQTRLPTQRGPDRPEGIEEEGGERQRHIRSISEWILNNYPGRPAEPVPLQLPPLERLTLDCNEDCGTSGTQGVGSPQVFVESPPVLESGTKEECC

SMILES	IC50
COc1cc(C(=O)Nc2scc(-c3ccc(Br)cc3)c2C(=O)O)cc(OC)c1OC	33.2 µM (active)
CC(/C=C1\SC(=S)N(C(C(=O)O)c2ccccc2)C1=O)=C\c1ccccc1 (centres undefined)	46 µM (active)
O=C(N/N=C/c1cc(Br)c(O)c(Br)c1)c1cc2c(ccc3ccccc32)o1	15 µM (active)
COc1ccc(C(=O)Oc2ccc(/C=N/Nc3ccc(Cl)c(C(=O)O)c3)cc2OC)cc1	19.3 µM (active)
